Common to all, as to type: cell-based
For assay [1], the target named is T1, EGFR L858R (BaF3-L858R cells) (Homo sapiens, UniProt P00533, L858R).
T1 construct: host or cells: BaF3
Kind of assay: Cell degradation of EGFR, HTRF assay, BaF3-L858R cells. Conditions: 16 h treatment; for DC50: EGFR degradation. Summed up: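 EGFR L858R levels measured by HTRF antibody pair in lysed BaF3-L858R cells after 16 h compound exposure (8-point 5-fold series from 10 uM final, 37° C). Degradation is relative to DMSO-only cells; DC50 fitted with Hill equation, Dmax taken as the largest percent loss.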
On the technique in general: TR-FRET usually uses a lanthanide donor and a delayed reading to cut background.

The target in assay [2] is p-EGFR Del19/C797S (H1975-clone #23 cells) (Homo sapiens, UniProt P00533). As to the kind of experiment: Cell p-EGFR inhibition assay, HTRF, H1975-clone#23 (DEL19/C797S) cells. Conditions: 16 h treatment; for Imax (%): maximum percentage of pEGFR inhibition; for IC50: pEGFR inhibition. The procedure: The EGFR over-expressed cells then underwent knockout, in which the EGFR targeting sgRNA was designed to only target the endogenous EGFR copies and preserve the exogenous EGFR copies. Followed by the knockout, the edited H1975 cells were seeded in 96 well plates at the concentration of 1 cell/well, cultured for about 2 weeks to allow single clones formation. The formed clones were screened by DNA sequencing and whole exon sequencing analysis for the desired edition.
(§1) H1975-#23 and BaF3-L858R cells are treated with compounds diluted in 0.1% DMSO cell culture medium on day 2, incubate for 16 h, 37° C., 5% CO2. the final concentration of compounds in all assay is start with 10 uM, 5-fold dilution, total 8 doses were included.
(§2) After 16 h treatment, for H1975-#23 cells, add 50 ul HTRF 1× lysis buffer to each well; for BaF3-L858R cells, add 20 μl 4× lysis buffer to each well; seal the plate and incubate 1 hour at room temperature on a plate shaker; Once the cells are lysed, 16 μL of cell lysate are transferred to a PE 384-well HTRF detection plate; 4 μL of pre-mixed HTRF antibodies are added to each well; Cover the plate with a plate sealer, spin 1000 rpm for 1 min, Incubate overnight at room temperature; Read on BMG PheraStar with HTRF protocol (337 nm-665 nm-620 nm).
(§3) High control=Cell group with added DMSO and without compound, indicating microplate readings without p-EGFR inhibited.
(§4) Imax is the maximum percentage of inhibition.
(§5) The IC50 value of a compound can be obtained by fitting the following equation.
(§6) Wherein, X and Y are known values, and IC50, Hillslope, Top and Bottom are the parameters obtained by fitting with software. […] The experimental data were fitted by calculating and analyzing with Dotmatics data analysis software.

Assay [3] deals with T2, EGFR-L858R/C797S (H1975-clone #8 cells) (Homo sapiens, UniProt P00533, C797S/L858R).
T2 construct: expressed in transfected cells; host or cells: H1975 (endogenous EGFR knocked out, clone #8)
As to the kind of experiment: Cell degradation of EGFR, HTRF assay, H1975-clone#8 (L858R/C797S) cells. As to conditions: 16 h treatment; for DC50: EGFR degradation.

Assay [4] has as its target T3, p-EGFR L858R (BaF3-L858R cells) (Homo sapiens, UniProt P00533, L858R).
T3 construct: host or cells: BaF3
As to the kind of experiment: Cell p-EGFR inhibition assay, HTRF, BaF3-L858R cells. As to conditions: 16 h treatment; for Imax (%): maximum percentage of pEGFR inhibition; for IC50: pEGFR inhibition. The procedure: BaF3-L858R (abbv. L858R) cell were purchased from Kangyuan Bochuang Biotechnology (Beijing) Co., Ltd.
as §1, §2, §3, §4, §5, §6

Setting [5] is: maximum percentage of degradation.

The record followed here is patent publication US20240425523A1, “Compounds for the Degradation of EGFR Kinase” (Beigene Switzerland GMBH, priority 2023, published 2024).

With `COC[C@@H]1CN(c2ccc3c(c2)N2CC4CC[C@H](COc5c(cnn5C)-c5cc(cc(C)n5)C(=O)/N=C/2N3)C4)CCN1C1CCN(c2cc(F)c(C3CCC(=O)NC3=O)nc2C)CC1` (stereo partly drawn) [Example 70, 3-(5-(4-((S)-4-((7^1R,7^3S,E)-1^1,2^6-dimethyl-3-oxo-5^2,5^3-dihydro-1^1H,5^1H-9-oxa-4-aza-5(2,1)-benzo[d]imidazola-2(2,4)-pyridina-1(4,5)-pyrazola-7(1,3)-cyclopentanacyclononaphane-5^6-yl)-2-(methoxymethyl)piperazin-1-yl)piperidin-1-yl)-3-fluoro-6-methylpyridin-2-yl)piperidine-2,6-dione], the half-maximal degradation concentration (DC50) in assay [1] is 3.78 nM; in assay [3] it was 4.11 nM. Also, the greatest degradation seen (Dmax) in assay [1] (setting [5]) is 87.7%; in assay [3] (setting [5]), 73.5%. The “Imax (%)” value came to 99.2% in assay [2] and 102.1% in assay [4]. The IC50 turned out to be 1.4 nM in assay [2] and 11 nM in assay [4].
As for `Cc1cc2cc(n1)-c1cnn(C)c1OC[C@H]1CCC(C1)CN1/C(=N/C2=O)Nc2ccc(N3CCN(C4CCN(c5ccc(NC6CCC(=O)NC6=O)cc5Cl)CC4)CC3)cc21` (stereo partly drawn) [Example 103, 3-((3-chloro-4-(4-(4-((7^1R,7^3S,E)-1^1,2^6-dimethyl-3-oxo-5^2,5^3-dihydro-1^1H,5^1H-9-oxa-4-aza-5(2,1)-benzo[d]imidazola-2(2,4)-pyridina-1(4,5)-pyrazola-7(1,3)-cyclopentanacyclononaphane-5^6-yl)piperazin-1-yl)piperidin-1-yl)phenyl)amino)piperidine-2,6-dione], the half-maximal degradation concentration (DC50) in assay [1] turned out to be 3.38 nM; in assay [3], 2.53 nM. Besides, the Dmax in assay [1] (setting [5]) worked out at 81.6%; in assay [3] (setting [5]), 83.3%. Also, the “Imax (%)” value was 102% in assay [2] and 95.6% in assay [4]. In addition, the IC50 in assay [2] was found to be 0.8 nM; in assay [4] it was 16.3 nM.
As for `Cc1cc2cc(n1)-c1cnn(CCO)c1OC[C@H]1CCC(C1)CN1/C(=N/C2=O)Nc2ccc(N3CCN(C4CCN(c5cc(F)c([C@H]6CCC(=O)NC6=O)c(F)c5)CC4)CC3)cc21` [Example 122, (R)-3-(2,6-difluoro-4-(4-(4-((7^1R,7^3S,E)-1^1-(2-hydroxyethyl)-2^6-methyl-3-oxo-5^2,5^3-dihydro-1^1H,5^1H-9-oxa-4-aza-5(2,1)-benzo[d]imidazola-2(2,4)-pyridina-1(4,5)-pyrazola-7(1,3)-cyclopentanacyclononaphane-5^6-yl)piperazin-1-yl)piperidin-1-yl)phenyl)piperidine-2,6-dione], the results for the DC50 in assay [1] and in assay [3] were 4.53 nM and 3.24 nM, respectively. In addition, the maximal degradation (Dmax) in assay [1] (setting [5]) worked out at 70.7%; in assay [3] (setting [5]), 52.2%. Also, the “Imax (%)” value in assay [2] stood at 98.9%; in assay [4], 96.8%. Further, the 50% inhibitory concentration (IC50) in assay [2] was 0.5 nM; in assay [4], 11 nM.
Take `Cc1cc2cc(n1)-c1cnn(C)c1OC[C@H]1CCC(C1)CN1/C(=N/C2=O)Nc2ccc(N3CCN(C4CCN(c5ccc(NC6CCC(=O)NC6=O)cc5C)CC4)CC3)cc21` (stereo partly drawn) [Example 123, 3-((4-(4-(4-((7^1R,7^3S,E)-1^1,2^6-dimethyl-3-oxo-5^2,5^3-dihydro-1^1H,5^1H-9-oxa-4-aza-5(2,1)-benzo[d]imidazola-2(2,4)-pyridina-1(4,5)-pyrazola-7(1,3)-cyclopentanacyclononaphane-5^6-yl)piperazin-1-yl)piperidin-1-yl)-3-methylphenyl)amino)piperidine-2,6-dione]: the DC50 in assay [1] was 3.37 nM; in assay [3], 2.14 nM. Besides, the Dmax is 77.1% in assay [1] (setting [5]) and 81.6% in assay [3] (setting [5]). The entries for the “Imax (%)” value in assay [2] and in assay [4] were 100.4% and 95.3%, respectively. Also, the IC50 in assay [2] was found to be 0.7 nM; in assay [4], 16.3 nM.
As to `Cc1cc2cc(n1)-c1c(C)nn(C)c1OC[C@H]1CC[C@H](C1)CN1/C(=N/C2=O)Nc2ccc(N3CCC(NC4CN(c5c(F)cc(OC6CCC(=O)NC6=O)cc5F)C4)CC3)cc21` (stereo partly drawn) [Example 158, 3-(3,5-difluoro-4-(3-((1-((7^1R,7^3S,E)-1^1,1^3,2^6-trimethyl-3-oxo-5^2,5^3-dihydro-1^1H,5^1H-9-oxa-4-aza-5(2,1)-benzo[d]imidazola-2(2,4)-pyridina-1(4,5)-pyrazola-7(1,3)-cyclopentanacyclononaphane-5^6-yl)piperidin-4-yl)amino)azetidin-1-yl)phenoxy)piperidine-2,6-dione], the half-maximal degradation concentration (DC50) in assay [1] was 3.75 nM; in assay [3] it was 4.39 nM. The Dmax in assay [1] (setting [5]) was 79.8%; in assay [3] (setting [5]), 77.3%. The results for the “Imax (%)” value in assay [2] and in assay [4] were 100.46% and 95.45%, respectively. Besides, the IC50 in assay [2] is 3.65 nM; in assay [4], 72.6 nM.
In the case of `Cc1cc2cc(n1)-c1c(C)nn(C)c1OC[C@H]1CC[C@H](C1)CN1/C(=N/C2=O)Nc2ccc(N(C)C3CCN(C4CCN(c5cc(F)c([C@H]6CCC(=O)NC6=O)c(F)c5)CC4)CC3)cc21` [Example 143, (R)-3-(2,6-difluoro-4-(4-(methyl((7^1R,7^3S,E)-1^1,1^3,2^6-trimethyl-3-oxo-5^2,5^3-dihydro-1^1H,5^1H-9-oxa-4-aza-5(2,1)-benzo[d]imidazola-2(2,4)-pyridina-1(4,5)-pyrazola-7(1,3)-cyclopentanacyclononaphane-5^6-yl)amino)-[1,4′-bipiperidin]-1-yl)phenyl)piperidine-2,6-dione], the DC50 in assay [1] was found to be 5.23 nM; in assay [3], 1.51 nM. Besides, the Dmax in assay [1] (setting [5]) was 74.3%; in assay [3] (setting [5]) it was 82%. In addition, the “Imax (%)” value is reported as 101.28% in assay [2] and 98.2% in assay [4]. Moreover, the results for the 50% inhibitory concentration (IC50) in assay [2] and in assay [4] were 1.15 nM and 7.8 nM, respectively.
On to `COC[C@@H]1CN(c2ccc3c(c2)N2CC4CC[C@H](COc5c(c(C)nn5C)-c5cc(cc(C)n5)C(=O)/N=C/2N3)C4)CCN1CC1CCN(c2cc(F)c([C@H]3CCC(=O)NC3=O)c(F)c2)CC1` [Example 127, (R)-3-(2,6-difluoro-4-(4-(((S)-2-(methoxymethyl)-4-((7^1R,7^3S,E)-1^1,1^3,2^6-trimethyl-3-oxo-5^2,5^3-dihydro-1^1H,5^1H-9-oxa-4-aza-5(2,1)-benzo[d]imidazola-2(2,4)-pyridina-1(4,5)-pyrazola-7(1,3)-cyclopentanacyclononaphane-5^6-yl)piperazin-1-yl)methyl)piperidin-1-yl)phenyl)piperidine-2,6-dione], for which the DC50 was found to be 9.26 nM in assay [1] and 6.07 nM in assay [3]. For the same molecule, the greatest degradation seen (Dmax) in assay [1] (setting [5]) came out at 88.8%; in assay [3] (setting [5]) it was 81.9%. In addition, the “Imax (%)” value in assay [2] is given as 100.85%; in assay [4], 101.7%. The 50% inhibitory concentration (IC50) in assay [2] was found to be 4.06 nM; in assay [4], 4.89 nM.
For `Cc1cc2cc(n1)-c1c(C)nn(C)c1OC[C@H]1CCC(C1)CN1/C(=N/C2=O)Nc2ccc(N3CCN([C@@H]4CCN(c5cc(F)c(C6CCC(=O)NC6=O)nc5C)C[C@@H]4F)CC3)cc21` (stereo partly drawn) [Example 82, 3-(3-fluoro-5-((3S,4R)-3-fluoro-4-(4-((7^1R,7^3S,E)-1^1,1^3,2^6-trimethyl-3-oxo-5^2,5^3-dihydro-1^1H,5^1H-9-oxa-4-aza-5(2,1)-benzo[d]imidazola-2(2,4)-pyridina-1(4,5)-pyrazola-7(1,3)-cyclopentanacyclononaphane-5^6-yl)piperazin-1-yl)piperidin-1-yl)-6-methylpyridin-2-yl)piperidine-2,6-dione], the DC50 in assay [1] is 0.31 nM; in assay [3] it was 0.8 nM. The Dmax was found to be 74.1% in assay [1] (setting [5]) and 89.2% in assay [3] (setting [5]). Besides, the “Imax (%)” value in assay [2] is recorded as 101.1%; in assay [4], 91.9%. The half-inhibitory concentration (IC50) in assay [2] was 1.1 nM; in assay [4], 3.1 nM.
As to “3-(5-(4-((S)-4-((7^1R,7^3S,E)-1^1,2^6-dimethyl-3-oxo-5^2,5^3-dihydro-1^1H,5^1H-9-oxa-4-aza-5(2,1)-benzo[d]imidazola-2(2,4)-pyridina-1(4,5)-pyrazola-7(1,3)-cyclopentanacyclononaphane-5^6-yl)-2-methylpiperazin-1-yl)piperidin-1-yl)-6-methylpyridin-2-yl)piperidine-2,6-dione [Example 214]”, the DC50 was determined as 0.65 nM in assay [1] and 0.61 nM in assay [3]. Moreover, the “Dmax (%)” value in assay [1] (setting [5]) turned out to be 82.61%; in assay [3] (setting [5]), 77.32%. Besides, the results for the “Imax (%)” value in assay [2] and in assay [4] were 100.03% and 100.54%, respectively. Besides, the concentration for half-maximal inhibition (IC50) in assay [2] came to 0.604 nM; in assay [4], 3.32 nM.

What is called DC50 is the midpoint of the concentration-degradation curve. Read a low DC50 as degradation at low concentration. In general, Dmax refers to the greatest extent of degradation seen. What is called IC50 is the concentration that gives 50% inhibition.
